# Tests used:
# Type in all cases: cell-based, Human
# H460 cells [1] = test: CCK8 cell viability and IC50 measurement, H460
# Procedure: (§1) Human lung cancer cell line H460 and H1299, human liver normal cell line LO2 were bought from ATCC. DMEM or RPMI 1640 was used as the cell culture medium with 10% FBS and 1% penicillin/streptomycin. Cells were maintained in an incubator with 37°C humidified atmosphere and 5% CO2.
# (§2) Cell viability and IC50 values were determined using the CCK8 assay kit. Cells were seeded at a density of 5 × 10^3 cells per well in a 96-well plate. After overnight adhesion, 25 μM of compounds or vehicle control DMSO which all dissolved in the culture medium were added to cells and cultured for 48 h or 72 h. CCK8 reagent, dissolved in the medium, was then added to cells and incubated for 1 h. The absorbance at 450 nm was measured using a microplate spectrophotometer (Thermo). Cell viability was calculated, with the untreated group taken as 100%. For IC50 values determination, different concentrations (0, 0.4 μM, 2 μM, 10 μM, 20 μM, 50 μM) of compounds were added to cells for 72 h. Subsequent CCK8 measurement allowed the calculation of inhibition percentage based on cell viability. The IC50 values were computed by the prism statistical software. The CCK-8 assay was conducted three times and the repetitions in each time were at least three. All the values were expressed as Mean ± SD, p < 0.05 was considered statistically significant.
# (§3) In order to assess the potential cytotoxicity of the synthesized compounds, we selected two types of human non-small-cell lung cancer cell line, H460 and H1299. Cell viability and cytotoxicity were evaluated using the CCK8 assay ([Xu et al., 2018]). The cells were treated with 25 μM of compounds 5a-5s and 6a-6i for 48h and 72 h. […] In contrast, no compounds managed to reduce H1299 cell viability to less than 50%, yet compounds 5i, 5m, 6h and 6i achieved cell viability rates below 70%. […] It is worth noting that minimal effects on the cell viability of the normal cell line LO2 were observed when exposed to these compounds. Further, we determined the half-maximal inhibitory concentration (IC50) of selected compounds against H460 cells, the results of which were summarized in Table 3.
# H1299 cells [2] = test: Live/dead cell staining (Calcein-AM/PI), H1299; details: H1299, 5, 10, 20 μM, 24 h
# Procedure: Cells with a density of 5 × 10^3 cells per well were seeded in a 96-well plate. After overnight incubation, cells were treated with different concentrations (0, 5 μM, 10 μM, 20 μM) of compounds for 24 h. The LIVE/DEAD Assay Kit was used to dye cells, and cells were observed and photographed under a fluorescent microscope. Live and Dead cell numbers were counted and the ratio of dead to living cells were calculated. Values were expressed as Mean ± SEM, p < 0.05 was considered statistically significant. Data were performed using Graph Prim 7.0.
# (§4) To assess the anti-proliferative effects of compound 5i, live/dead cell staining was performed using Calcein Acetoxymethyl Ester (Calcein-AM) and Propidium Iodide (PI) dyes ([Xie et al., 2023]). Calcein-AM highlights live cells through green fluorescence emission, while PI identifies dead cells with damaged membrane integrity, producing red fluorescence. H460 and H1299 cells were treated with different concentrations (0, 5, 10 and 20 μM) of compound 5i for 24 h. After 24 h treatment, cells were stained with Calcein-AM and PI, diluted in cultured medium, and incubated for an hour in dark. Then the fluorescence was detected and photographed using a fluorescent microscope. […] In addition, we also performed plate clone formation assay ([Xu et al., 2018]) to further investigate the anti-proliferation ability of compound 5i. […]
# H1299 cells [3] = test: Apoptosis assay, Annexin V-FITC/PI flow cytometry, H1299; details: H1299, 72 h
# Procedure: (§5) Cells with a density of 3 × 10^5 cells per well were seeded in 6-well plates. After overnight adhesion, cells were treated with different concentrations of compounds for 72 h. Cells were harvested and stained with Annexin V-FITC and propidium iodide. Apoptotic ratio was quantified using the flow cytometry (BD Biosciences) and analyzed using the FlowJo software v10. Values were expressed as Mean ± SD, p < 0.05 was considered statistically significant. Data were performed using Graph Prim 7.0.
# (§6) Apoptosis is a programmed-controlled process of cell self-destruction, and increased cell apoptosis can lead to cell death ([Wang et al., 2023]). To explore the preliminary molecular mechanisms of the synthesized compounds action, the apoptotic activity of compound 5i was evaluated by comparing the percentage of apoptotic cells with untreated cells using flow cytometry after staining with Annexin V-FITC and PI ([Chen et al., 2022a]). This assay facilitates the detection of necrotic cells (Q1, AV-/PI+), late apoptotic cells (Q2, AV+/PI+), early apoptotic cells (Q3, AV+/PI-), and live cells (Q4, AV-/PI-). H460 and H1299 cells were treated with different doses of compound 5i for 72h, and cells were collected, stained, and analyzed. The proportion of early and late apoptotic cells was added and their ratio relative to the total cells was calculated.
# LO2 cells = test: CCK8 cell viability, normal cell line LO2; details: LO2 normal liver cells, 25 μM, 72 h
# Procedure: as §1, §2, §3
# H1299 cells [4] = test: Plate clone formation assay, H1299; details: H1299, 2-32 μM
# Procedure: Cells with the density of 500 cells per well were seeded in a 6-well plate. Different concentrations (0, 2 μM, 4 μM, 8 μM, 16 μM and 32 μM) of compounds were added to cells and maintained for a 72- hour duration. And cells were cultured until the monoclonal appeared. Afterward, cells were fixed with 4% paraformaldehyde and stained by Giemsa dye. The plate clone numbers were photographed and counted using a microscope. Values were expressed as Mean ± SEM, p < 0.05 was considered statistically significant. Data were performed using Graph Prim 7.0.
# as §4
# H460 cells [5] = test: Apoptosis assay, Annexin V-FITC/PI flow cytometry, H460; details: H460, 2, 4 and 8 μM, 72 h
# Procedure: as §5, §6
smiles,measurement,setting,value
COc1c2n(cc(C(=O)Nc3cccc(-c4cn(-c5ccccc5OC(F)(F)F)nn4)c3)c1=O)CC1OCC(C)N1C2=O (stereo not shown) [Compound 5i],cell proliferation inhibition rate,"H460 cells [1]; H460, 72-h treatment",exceed 50%
same,IC50,"H460 cells [1]; H460, 72 h, CCK8",6.06 ± 1.8 µM
same,live and dead cell numbers,H1299 cells [2],decrease in live cell numbers alongside a substantial rise in dead cells
same,apoptotic cells (early + late),H1299 cells [3],no significant change or even a decrease
same,Cell viability,LO2 cells,99.80%
same,number of cell clones,H1299 cells [4],reduction in the number of cell clones
same,apoptotic cells (early + late),H460 cells [5],significant increase in apoptotic cells

# Source: article PMC10547880, “Synthesis and biological evaluation of novel 1,2,3-triazole hybrids of cabotegravir: identification of potent antitumor activity against lung cancer” (Frontiers in Pharmacology, 2023)
